Source: PubChem BioAssay AID1963445 (Molecular Pharmacology Branch, DTP, NCI, 2024)
Several values for one entry are separate records, joined by “and”; a condition that tells them apart may be missing. Identical values can stand only once.

System: MCF7 complex spheroid growth, % test/control
Experiment: Anticancer human tumor MCF7 cell line growth inhibition [Asc];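 further: spheroids exposed to compounds for 7 days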;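 on viability, T/C: 100% = DMSO vehicle control wells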
Conditions: for viability, T/C: stronger effect = lower value; active means viability on the fitted dose curve at most 10% of control; inactive means the rest
In short: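 Tumor cells were grown as multicellular spheroids with stromal HUVEC and mesenchymal stem cells and treated singly or in combination. Concentrations fell in half-log steps from the clinical Cmax, or from 10 microM where none was known.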

[1] = curve of first compound, second compound 0.00949 µM
[2] = curve of first compound, second compound 0.03 µM
[3] = curve of first compound, second compound 0.0949 µM
[4] = curve of first compound, second compound 0.3 µM
[5] = curve of first compound, second compound 0.949 µM
[6] = curve of first compound, second compound 3 µM
[7] = second compound 0.00949 µM, first compound 0.00316 µM
[8] = second compound 0.00949 µM, first compound 0.01 µM
[9] = second compound 0.00949 µM, first compound 0.0316 µM
[10] = second compound 0.00949 µM, first compound 0.1 µM
[11] = second compound 0.00949 µM, first compound 0.316 µM
[12] = second compound 0.00949 µM, first compound 1 µM
[13] = second compound 0.03 µM, first compound 0.00316 µM
[14] = second compound 0.03 µM, first compound 0.01 µM
[15] = second compound 0.03 µM, first compound 0.0316 µM
[16] = second compound 0.03 µM, first compound 0.1 µM
[17] = second compound 0.03 µM, first compound 0.316 µM
[18] = second compound 0.03 µM, first compound 1 µM
[19] = second compound 0.0949 µM, first compound 0.00316 µM
[20] = second compound 0.0949 µM, first compound 0.01 µM
[21] = second compound 0.0949 µM, first compound 0.0316 µM
[22] = second compound 0.0949 µM, first compound 0.1 µM
[23] = second compound 0.0949 µM, first compound 0.316 µM
[24] = second compound 0.0949 µM, first compound 1 µM
[25] = second compound 0.3 µM, first compound 0.00316 µM
[26] = second compound 0.3 µM, first compound 0.01 µM
[27] = second compound 0.3 µM, first compound 0.0316 µM
[28] = second compound 0.3 µM, first compound 0.1 µM
[29] = second compound 0.3 µM, first compound 0.316 µM
[30] = second compound 0.3 µM, first compound 1 µM
[31] = second compound 0.949 µM, first compound 0.00316 µM
[32] = second compound 0.949 µM, first compound 0.01 µM
[33] = second compound 0.949 µM, first compound 0.0316 µM
[34] = second compound 0.949 µM, first compound 0.1 µM
[35] = second compound 0.949 µM, first compound 0.316 µM
[36] = second compound 0.949 µM, first compound 1 µM
[37] = second compound 3 µM, first compound 0.00316 µM
[38] = second compound 3 µM, first compound 0.01 µM
[39] = second compound 3 µM, first compound 0.0316 µM
[40] = second compound 3 µM, first compound 0.1 µM
[41] = second compound 3 µM, first compound 0.316 µM
[42] = second compound 3 µM, first compound 1 µM

COc1c(OCCCN2CCOCC2)ccc2c3n(c(=NC(=O)c4cnc(N)nc4)nc12)CCN3 + CCN1C(C(=O)NC23CCC(C(=O)O)(CC2)CC3)C(c2cccc(Cl)c2F)C2(C(=O)Nc3cc(Cl)ccc32)C12CCCCC2
48.4 nM: IC50 [1]
42.4 nM: IC50 [2]
< 3.16 nM: IC50 [3] | IC50 [4] | IC50 [5] | IC50 [6]
inactive: viability, T/C [7] 98.8% | viability, T/C [8] 70% | viability, T/C [9] 54.6% | viability, T/C [10] 49% | viability, T/C [11] 14.4% | viability, T/C [13] 78.7% | viability, T/C [14] 77.8% | viability, T/C [15] 56.1% | viability, T/C [16] 29% | viability, T/C [17] 7.5% | viability, T/C [19] 47.8% | viability, T/C [20] 50.3% | viability, T/C [21] 36.6% | viability, T/C [22] 18.4% | viability, T/C [25] 26.4% | viability, T/C [26] 21.5% | viability, T/C [27] 12.6% | viability, T/C [31] 17.9%
active: viability, T/C [12] 9.39% | viability, T/C [18] 9% | viability, T/C [23] 8.59% | viability, T/C [24] 8.82% | viability, T/C [28] 4.54% | viability, T/C [29] 7.49% | viability, T/C [30] 8.96% | viability, T/C [32] 10.1% | viability, T/C [33] 4.6% | viability, T/C [34] 6.32% | viability, T/C [35] 8.83% | viability, T/C [36] 8.95% | viability, T/C [37] 9.35% | viability, T/C [38] 5.25% | viability, T/C [39] 6.94% | viability, T/C [40] 6.59% | viability, T/C [41] 9.64% | viability, T/C [42] 10%

O=C(c1ccc(F)c(F)c1Nc1ccc(I)cc1F)N1CC(O)([C@@H]2CCCCN2)C1
inactive: viability, T/C (compound 0.00316 µM) 104% and 101% and 102% | viability, T/C (compound 0.01 µM) 92.1% and 89.8% and 79.8% | viability, T/C (compound 0.0316 µM) 100% and 92.2% and 90.3% | viability, T/C (compound 0.1 µM) 99% and 111% and 102% | viability, T/C (compound 0.316 µM) 91.3% and 97.2% and 97.5% | viability, T/C (compound 1 µM) 86.5% and 89.6% and 87.4%
> 1000 nM: IC50 (curve of compound)

CCN1CCN(Cc2ccc(Nc3ncc(F)c(-c4cc(F)c5nc(C)n(C(C)C)c5c4)n3)nc2)CC1 + CCN1C(C(=O)NC23CCC(C(=O)O)(CC2)CC3)C(c2cccc(Cl)c2F)C2(C(=O)Nc3cc(Cl)ccc32)C12CCCCC2
< 3.16 nM: IC50 [3] | IC50 [4] | IC50 [5] | IC50 [6]
> 1000 nM: IC50 [1] | IC50 [2]
inactive: viability, T/C [7] 99% | viability, T/C [8] 112% | viability, T/C [9] 90.4% | viability, T/C [10] 92.4% | viability, T/C [11] 85.6% | viability, T/C [12] 71.7% | viability, T/C [13] 120% | viability, T/C [14] 99.9% | viability, T/C [15] 88.2% | viability, T/C [16] 63.7% | viability, T/C [17] 59% | viability, T/C [18] 66.1% | viability, T/C [19] 53.9% | viability, T/C [20] 45.3% | viability, T/C [21] 41.8% | viability, T/C [22] 42.9% | viability, T/C [23] 40.3% | viability, T/C [24] 47.1% | viability, T/C [25] 31.8% | viability, T/C [26] 30.2% | viability, T/C [27] 27.7% | viability, T/C [28] 30.9% | viability, T/C [29] 34.5% | viability, T/C [30] 40.2% | viability, T/C [31] 20.6% | viability, T/C [32] 17.6% | viability, T/C [33] 20.5% | viability, T/C [34] 21.5% | viability, T/C [35] 24.9% | viability, T/C [36] 20% | viability, T/C [37] 13.1% | viability, T/C [38] 14% | viability, T/C [39] 14.8% | viability, T/C [40] 14.6% | viability, T/C [41] 12.7% | viability, T/C [42] 13.4%

NC(=O)C(=Cn1cnc(-c2cc(C(F)(F)F)cc(C(F)(F)F)c2)n1)c1cncnc1 + Cc1c(S(C)(=O)=O)c(-c2cc(F)cc(N3CCN(c4ccc(NS(=O)(=O)c5ccc(NC(CCN6CCC(C(=O)OCCCP(=O)(O)O)CC6)CSc6ccccc6)c(S(=O)(=O)C(F)(F)F)c5)cc4)CC3)c2)c(-c2ccc(Cl)cc2)n1C(C)C
27.3 nM: IC50 (curve of first compound, second compound 3.16 µM)
inactive: viability, T/C (second compound 0.0316 µM, first compound 0.000949 µM) 94.4% | viability, T/C (second compound 0.0316 µM, first compound 0.003 µM) 88% | viability, T/C (second compound 0.0316 µM, first compound 0.00949 µM) 89.3% | viability, T/C (second compound 0.0316 µM, first compound 0.03 µM) 89.7% | viability, T/C (second compound 0.0316 µM, first compound 0.0949 µM) 40.9% | viability, T/C (second compound 0.0316 µM, first compound 0.3 µM) 16.8% | viability, T/C (second compound 0.1 µM, first compound 0.000949 µM) 87.6% | viability, T/C (second compound 0.1 µM, first compound 0.003 µM) 82.8% | viability, T/C (second compound 0.1 µM, first compound 0.00949 µM) 81.8% | viability, T/C (second compound 0.1 µM, first compound 0.03 µM) 76.4% | viability, T/C (second compound 0.1 µM, first compound 0.0949 µM) 20.3% | viability, T/C (second compound 0.1 µM, first compound 0.3 µM) 15.7% | viability, T/C (second compound 0.316 µM, first compound 0.000949 µM) 90.5% | viability, T/C (second compound 0.316 µM, first compound 0.003 µM) 87.4% | viability, T/C (second compound 0.316 µM, first compound 0.00949 µM) 70.1% | viability, T/C (second compound 0.316 µM, first compound 0.03 µM) 60.9% | viability, T/C (second compound 0.316 µM, first compound 0.0949 µM) 19.7% | viability, T/C (second compound 0.316 µM, first compound 0.3 µM) 16.4% | viability, T/C (second compound 1 µM, first compound 0.000949 µM) 89% | viability, T/C (second compound 1 µM, first compound 0.003 µM) 75.8% | viability, T/C (second compound 1 µM, first compound 0.00949 µM) 73.8% | viability, T/C (second compound 1 µM, first compound 0.03 µM) 61% | viability, T/C (second compound 1 µM, first compound 0.0949 µM) 13.9% | viability, T/C (second compound 1 µM, first compound 0.3 µM) 18.8% | viability, T/C (second compound 3.16 µM, first compound 0.000949 µM) 70.4% | viability, T/C (second compound 3.16 µM, first compound 0.003 µM) 73.4% | viability, T/C (second compound 3.16 µM, first compound 0.00949 µM) 77% | viability, T/C (second compound 3.16 µM, first compound 0.03 µM) 47.9% | viability, T/C (second compound 3.16 µM, first compound 0.0949 µM) 22.5% | viability, T/C (second compound 3.16 µM, first compound 0.3 µM) 18.4% | viability, T/C (second compound 10 µM, first compound 0.000949 µM) 121% | viability, T/C (second compound 10 µM, first compound 0.003 µM) 131% | viability, T/C (second compound 10 µM, first compound 0.00949 µM) 102% | viability, T/C (second compound 10 µM, first compound 0.03 µM) 90.6% | viability, T/C (second compound 10 µM, first compound 0.0949 µM) 25.5% | viability, T/C (second compound 10 µM, first compound 0.3 µM) 16.8%
76.6 nM: IC50 (curve of first compound, second compound 0.0316 µM)
62.6 nM: IC50 (curve of first compound, second compound 10 µM)
35.1 nM: IC50 (curve of first compound, second compound 0.316 µM)
39.8 nM: IC50 (curve of first compound, second compound 1 µM)
51.6 nM: IC50 (curve of first compound, second compound 0.1 µM)

C=C(F)C(=O)N1CCN(c2nc(OCC3CCCN3C)nc3c2CCN(c2cccc4cccc(Cl)c24)C3)CC1CC#N (stereo not given)
inactive: viability, T/C (compound 0.0316 µM) 82.4% and 98.6% and 109% | viability, T/C (compound 0.1 µM) 92.8% and 99.8% and 107% | viability, T/C (compound 0.316 µM) 90.7% and 97.9% and 95.7% | viability, T/C (compound 1 µM) 75.4% and 92.3% and 89.9% | viability, T/C (compound 3.16 µM) 31% and 80% and 72.3%
active: viability, T/C (compound 10 µM) 0.38% and 0.28% and 0.27%
1940 nM and 4850 nM and 4360 nM: IC50 (curve of compound)
